According to patent publication US20240059729A1, “MULTIFUNCTIONAL CYCLIC DINUCLEOTIDE AND USE THEREOF” (TYLIGAND BIOSCIENCE (SHANGHAI) LIMITED, priority 2020, published 2024):
Counter-ions that a name gives are not always drawn.

Assay: Hepatocyte metabolic stability assay
Type: in vitro ADME
Details: 5 species of hepatocytes (mouse, rat, dog, monkey, human); FIG. 4A
Description: The compounds of the invention were similarly tested for hepatocyte metabolic stability in 5 species (mouse, rat, dog, monkey, human) according to standard methods of in vitro metabolic stability studies conventional in the art, for example (Kems, Edward H. and Di Li (2008). Drug-like Properties: Concepts, Structure Design and Methods: From ADME to Toxicity Optimization, San Diego: Academic Press; Di, Li et al, Optimization of a High Throughput Microsomal Stability Screening Assay for Profiling Drug Discovery Candidates, J Biomol Screen. 2003, 8(4), 453).
The hepatocytes used in the experiment: human hepatocytes (SHQY, Lot #HEP190006), dog hepatocytes (IVT, Lot #ZMB); monkey hepatocytes (Xenotech, Lot #2010022), rat hepatocytes (SHQY, Lot #HEP134045), and mouse hepatocytes (BioIVT, Cat. #M005052, Lot. #MEO).
Cryopreserved hepatocyte tubes were removed from a liquid nitrogen tank and immediately placed ill in a shaking water bath at 37±1° C. for 2 minutes±15 seconds. […] The supernatant was aspirated without touching the cell pellet, and cell viability and number were determined. The hepatocytes were counted and then the cell suspension was diluted in KHB buffer to the appropriate density (viable cell density=2×10^6 cells/mL). […]

Nc1nc2c(ncn2[C@@H]2O[C@@H]3CO[P@@](=O)(S)OC4C(F)[C@H](n5cnc6c(N)nc(Cl)nc65)O[C@@H]4CO[P@@](=O)(S)OC2C3O)c(=O)[nH]1 (stereo partly drawn) [Example 10, (2′,3′)-cyclo-(Rp,Rp)-[2′-O-phosphorothioate-diester-guanosine]-[3′-O-phosphorothioate-diester-2-chloro-2′-deoxy-2′-fluoro-beta-adenosine] diammonium salt]
Hepatocyte metabolic stability (in words): good metabolic stability
